Here are results for one compound from US20050209140A1, “Methods of controlling axonal growth” (MASSACHUSETTS INSTITUTE OF TECHNOLOGY, priority 1996, published 2005).

Entries after “also recorded” stand apart in the source; their conditions may differ. Where a SMILES comes first, the peptide text is derived from it.

Test [1] deals with retinal ganglion cells (RGCs). Briefly: Dissociated retinal cell culture: survival and neurite outgrowth of prelabeled RGCs. In kind it is cell-based, mouse. On the procedure:
(§1) Primary cultures of dissociated retinal cells were prepared from P2 wild-type or transgenic animals. RGCs were prelabeled by injecting DiI solution (25% in Dimethyl Formamide) into the tectal region bilaterally in P0 pups. Cells were plated in 24-cell wells treated with poly-L-lysine ([…], 4° C. overnight) and coated with Human Merosin ([…], r.t., 2 hr)(Meyer-Franke, A. and Barres, B. A. Neuron 15, 805-819 (1995)). Cultures were maintained for 2 to 3 days in NeuralBasal medium supplemented with B27. Trypan blue staining was used to examine the viability of retinal ganglion cells (RGCs). Retinotectal cocultures prepared from wild-type P2 mice were described previously and ZVAD (Z-Val-Ala-Asp-CH2F, Enzyme Systems Products) was added to the culture medium at the time of plating. Cell death was detected by staining with the fluorescent dye, SYTOX green fluorescent dead cell stain (Molecular Probes). Cultures were visualized under an inverted Nikon microscope equipped with Nomarski and epifluorescence illumination.
Whether these two activities of neurons, survival and axonal growth, can be separated in vitro was next examined. […]

In the next test the test system is retinal explants (RGCs). Briefly: Retinotectal explant coculture: cell death in retinal explants and retinal axon growth into tectal slices. The format is cell-based, mouse. On the procedure: Brains were dissected into ice-cold Gey's balanced salt solution enriched with glucose. […] Retinal explants were abutted against tectal slices. Tissues were placed on the microporous membrane of Millicell wells (Millipore) and maintained in NeuralBasal medium supplemented with B27 (GIBCO Inc., New York) at 37° C. for five days. To exclude the possibility that tectal tissues from mutant mice may affect axonal growth of RGCs, a series of parallel experiments were perforemd in which one retinal explant of each mouse was confronted with the tectum from the same mouse, while the second retinal explant was placed against the tectum from another mouse. With this arrangement, retinal explants from each animal had the possibility of being cocultured with the tectum from a wild-type, heterozygous, or homozygous animal. The number of regenerating axons was sampled by applying the lipophilic carbocyanine fluorescent label, DiI, in crystals to fixed retinal explants. The cocultures were stored in fixative for two-four weeks to allow diffusion of the dye, and labeled retinal axons were viewed with a fluorescence microscope (Nikon).
as §1
The effect of the ICE inhibitor was also tested in the explant coculture system with tissue prepared from wild-type P2 mice.

On to `CC(C)[C@H](NC(=O)OCc1ccccc1)C(=O)N[C@@H](C)C(=O)N[C@@H](CC(=O)O)C(=O)CF` [ZVAD, Z-Val-Ala-Asp-CH2F] (HELM PEPTIDE1{[O=C(OCc1ccccc1)[*:2]].V.A.D.[FC[*:1]]}$$$$V2.0), for which the “neurite outgrowth of labeled RGCs in dissociated culture” value in test [1] (ZVAD-treated RGCs from wild-type P2 animals, no neurotrophic factors added, n=36) is “round and devoid of neurites”. Also, the “RGC death in dissociated retinal cell culture” value in test [1] (retinae of P2 pups, ZVAD at a concentration of 10 mM or above, after 2 days in culture) is given as “effectively reduced RGC death”. Also, in the test with retinal explants (RGCs) (overall conclusion of the ZVAD experiments), the “ability to promote axonal growth” value is listed as “not sufficient to promote axonal growth; also recorded: not sufficient to support axonal growth”. Also, in the test on retinal explants (RGCs) (wild-type P2 mice), the “protection of cells from death in retinal explants compared with bcl-2 transgenic mouse” value is listed as “protected cells from death almost as well as bcl-2”. For the same compound, the “number of growing retinal axons with increasing concentration of ZVAD” value in the test on retinal explants (RGCs) (wild-type P2 mice, ZVAD 50, 100, 200 µM) is “did not change significantly”. Also, the “extent of cell death in retinal explants” value in the test with retinal explants (RGCs) (wild-type P2 mice, ZVAD 50, 100, 200 µM, SYTOX green dead cell stain) is “reduced the extent of cell death; also recorded: number of dying cells in retinal explants decreased”. Besides, the “number of axons that invaded tectal slices, ZVAD-treated wild-type cultures versus bcl-2 transgenic mice” value in the test on retinal explants (RGCs) (wild-type P2 mice, fold less than bcl-2 transgenic) was 10 fold.
